Results published in EPA's ToxValDB 9.5 (doi:10.2903/j.efsa.2013.3298).
In brackets after ≈: the same amount, converted by molar mass.

Assays:
Typhlodromus pyri = experiment: LR50; higher = less toxic; details: chronic/long-term; duration: 14 days; mortality
Aphidius rhopalosiphi = experiment: LR50; higher = less toxic; details: acute; duration: 14 days; mortality
Pimephales promelas = details: chronic/long-term; duration: 35 days; body weight
Colinus virginianus = details: for LD50: acute, oral, mortality
Apis mellifera = details: acute; duration: 48 hours; oral; unspecified; mortality
Daphnia magna = details: chronic/long-term; duration: 21 days; reproduction
Cyprinodon variegatus = details: acute; duration: 96 hours; mortality
Canidae = details: oral, M/F, Dog Other, hematological

For `Cc1cc(C(F)(C(F)(F)F)C(F)(F)F)ccc1NC(=O)c1cccc(I)c1C(=O)NC(C)(C)CS(C)(=O)=O` [Flubendiamide], the LR50 (Typhlodromus pyri) was greater than 675 g/ha, the LR50 (Aphidius rhopalosiphi) was greater than 675 g/ha and the LC50 (Bibionidae; acute, duration: 48 hours, mortality) was 1.88 µg/mL (≈ 2.75 µM). It also gave an NOEC (Bibionidae; chronic/long-term, duration: 28 days, development) of 35 µg/L, an LC50 (Tagia sp.; acute, duration: 14 days, mortality) greater than 1000 mg/kg and an NOEC (Tagia sp.; chronic/long-term, duration: 56 days, reproduction) of 1000 mg/kg. For the same molecule, the NOEC (Pimephales promelas) was 60.2 µg/L, the LD50 (Rattus norvegicus; acute, oral, M/F, mortality) was greater than 2000 mg/kg and the NOAEL (Rattus norvegicus; chronic, M, hematological) was 1.7 mg/kg-day. It also gave an NOAEL (Rattus norvegicus; developmental, development) of 10 mg/kg-day, an NOAEL (Rattus norvegicus; reproduction developmental, F, reproduction) of 3.68 mg/kg-day and an LD50 (Colinus virginianus; diet) greater than 1080 mg/kg-day. It also gave an LD50 (Colinus virginianus) greater than 2000 mg/kg, an NOEL (Colinus virginianus; reproduction developmental, reproduction) of 10.2 mg/kg-day and an LD50 (Apis mellifera) greater than 200 µg/piece. The NOEC (Daphnia magna) was 0.4 µg/L, the LC50 (Cyprinodon variegatus) was greater than 0.0298 µg/mL and the NOAEL (Canidae; chronic, duration: 1 years) was 2.21 mg/kg-day. The NOAEL (Canidae; subchronic, duration: 90 days) was 2.6 mg/kg-day, the NOEL (Anas platyrhynchos; reproductive, reproduction) was 26 mg/kg-day and the LD50 (Anas platyrhynchos; short-term, oral, feed, mortality) was greater than 1020 mg/kg-day.
